Results taken from US20250064740A1, “MULTI-VESICULAR LIPID NANOPARTICLE TOLEROGENIC VACCINES FOR INDUCTION OF SYSTEMIC IMMUNE TOLERANCE IN VIVO” (KARMA BIOTECHNOLOGIES, priority 2022, published 2025).

Legend:
Jurkat cells = assay: SNIPR uptake/transfection of a T cell line with endocytosis inhibitors; assay type: cell-based; conditions: MbC 15 uM, 1 h pretreatment
HepG2 cells = assay: SNIPR [pEGFP] transfection of a liver cell line with caveolin inhibitor; assay type: cell-based; conditions: MbC 15 uM, 1 h pretreatment, 48 h
[1] = system: murine bone marrow-derived macrophages; assay: In vitro immunogenicity: TNFa release by ELISA; assay type: cell-based, mouse; conditions: positive controls
Excerpt: TNFa release was quantitated by ELISA. Bar charts show mean TNFa release per treatment group (n=3 replicates per treatment group). Error bars indicate SEM. Filled circles indicate mean TNFa release for each individual replicate for each treatment group. Colors of filled circles indicate treatment group.

Row | Substance | Transfection of a T cell line by pDNA-loaded SNIPR nanoparticles in presence of inhibitor (Jurkat cells) | Transfection of a liver cell line by pDNA-loaded SNIPR nanoparticles in presence of inhibitor (HepG2 cells) | TNFa release [1]
1 | Methyl-beta-cyclodextrin [MbC] | abrogated | abrogated | 
2 | lipopolysaccharide [LPS] |  |  | strongly elicited
